In general, inhibition refers to the drop in the measured response relative to a control, in per cent.

Each structure is given as a SMILES string. Like-named read-outs stand apart in the source and are kept apart here.

This note sets out measurements from patent US20110251379A1, “COMPOUNDS USEFUL FOR TREATING NEURODEGENERATIVE DISORDERS” (Satori Pharmaceuticals, Inc., priority 2010, published 2011).

Assay type in all cases: cell-based
Experiment [1] concerns Aβ-40. Kind of experiment: MSD Human (6E10) Ab 3-PLEX elisa, conditioned media of 2B7 cells: Aβ-40. The note with it: for IC50 / inhibition at 20 µM: Homo sapiens; for IC50: Aβ-40 (superscript b). The procedure, abridged:
(§1)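 Confluent 2B7 cells were treated with compounds for 5 hours at 37° C in media with 1% DMSO. Conditioned media, diluted 1:1 in blocking buffer, was incubated overnight at 4 °C or 2 h at room temperature on MSD 6E10 plates. Aβ levels were read against seven-point standard curves, and IC50 was obtained from 4-parameter fits of percent vehicle.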

Experiment [2] concerns Aβ-42. The experiment is described as follows: MSD Human (6E10) Ab 3-PLEX elisa, conditioned media of 2B7 cells: Aβ-42. Conditions: for IC50: Aβ-42 (superscript c). The method in brief: as §1
Experiment [3] concerns Aβ-38. Kind of experiment: MSD Human (6E10) Ab 3-PLEX elisa, conditioned media of 2B7 cells: Aβ-38. Conditions: for IC50: Aβ-38 (superscript a). The method in brief: as §1
Setting [4] is: Homo sapiens, read-out: 50% reduction value.
Where [5] appears, read: Homo sapiens, read-out: IC50 range.

Turning to `CNC(=O)OC1CC[C@]23C[C@]24CC[C@]2(C)[C@@H]5C(OC([C@H](OC(=O)N6CCC6)C(C)C)C[C@H]5C)[C@H](O)[C@@]2(C)C4CC[C@H]3C1(C)C` (stereo partly drawn), the IC50 in experiment [1] (read-out: 50% reduction value) is 1000 to 10000 nM; in experiment [1] (read-out: IC50 range) it was 1000 to 10000 nM; in experiment [2] (setting [4]), less than 1000 nM; in experiment [2] (setting [5]) it was less than 1000 nM; in experiment [3] (setting [4]) it was less than 1000 nM; in experiment [3] (setting [5]), less than 1000 nM.
`CC(C)C(=O)N1CCO[C@@H](O[C@H]2CC[C@]34C[C@]35CC[C@]3(C)C6C(OC(CN(C)C(=O)N(C)C)C[C@H]6C)[C@H](O)[C@@]3(C)C5CC[C@H]4C2(C)C)C1` (stereo partly drawn): the inhibition at 20 µM in experiment [1] (Aβ-40, 20 μM) fell in the range of 25 to 75%; in experiment [2] (Homo sapiens, Aβ-42, 20 μM), 25 to 75%. Also, the IC50 in experiment [2] (setting [4]) is more than 10000 nM; in experiment [3] (setting [4]) it was less than 10000 nM; in experiment [3] (setting [5]), 1000 to 10000 nM.
Turning to `CNC(=O)OC(C)(C)[C@@H](O)[C@H]1C[C@@H](C)[C@H]2[C@H](O1)[C@H](O)[C@@]1(C)C3CC[C@H]4C(C)(C)[C@@H](O)CC[C@@]45C[C@@]35CC[C@]21C` (stereo partly drawn), the IC50 in experiment [1] (read-out: 50% reduction value) was more than 10000 nM; in experiment [3] (setting [4]) it was 1000 to 10000 nM. Besides, in experiment [2] (Homo sapiens, Aβ-42, 20 μM), the inhibition at 20 µM lay in the range of 25 to 75%.
`CC1CC(C(OC(=O)N(C)C)C(C)(C)O)OC2C1C1(C)CCC34CC35CCC(O)C(C)(C)C5CCC4C1(C)C2O` (stereo not drawn) [drawing 1217]: the “% Inh. (range)” value in experiment [1] (Aβ-40, 20 μM) was “E^b (20 μM) E^c (20 μM) (% inhibition of 25-75%)”; in experiment [2] (Aβ-42, 20 μM), “E^b (20 μM) E^c (20 μM) (% inhibition of 25-75%)”. The IC50 in experiment [3] (read-out: 50% reduction value) fell in the range of 1000 to 10000 nM.
Turning to `C[C@@H]1CC(C(O)C(C)(C)C)OC2[C@H]1[C@@]1(C)CC[C@@]34C[C@@]35CC[C@H](O[C@H]3CN(C6COC6)CCO3)C(C)(C)[C@@H]5CCC4[C@]1(C)[C@H]2O` (stereo partly drawn), the IC50 in experiment [1] (read-out: 50% reduction value) is less than 1000 nM; in experiment [1] (read-out: IC50 range), less than 1000 nM; in experiment [2] (setting [4]) it was 1000 to 10000 nM; in experiment [2] (setting [5]), less than 1000 nM; in experiment [3] (setting [4]), less than 1000 nM; in experiment [3] (setting [5]) it was less than 1000 nM.
As for `CCO[C@@H](C1C[C@@H](C)[C@H]2C(O1)[C@H](O)[C@@]1(C)C3CC[C@H]4C(C)(C)[C@@H](O)CC[C@@]45C[C@@]35CC[C@]21C)C(C)(C)O` (stereo partly drawn), the IC50 in experiment [1] (read-out: IC50 range), in experiment [2] (setting [4]), in experiment [2] (setting [5]) and in experiment [3] (setting [4]) was less than 1000 nM each time. The inhibition at 20 µM was 25 to 75% in experiment [1] (Aβ-40, 20 μM) and 25 to 75% in experiment [3] (Homo sapiens, Aβ-38, 20 μM).
In the case of `C[C@@H]1CC([C@H]([S+](C)[O-])C(C)(C)O)OC2[C@H]1[C@@]1(C)CC[C@@]34C[C@@]35CCC(O)C(C)(C)[C@@H]5CCC4[C@]1(C)[C@H]2O` (stereo partly drawn), the inhibition at 20 µM lay within 25 to 75% in experiment [1] (Aβ-40, 20 μM) and 25 to 75% in experiment [2] (Homo sapiens, Aβ-42, 20 μM). Further, the IC50 in experiment [3] (setting [4]) fell in the range of 1000 to 10000 nM.
For the compound `CO[C@H](C(C)C)C1C[C@@H](C)[C@H]2C(O1)[C@H](O)[C@@]1(C)C3CC[C@H]4C(C)(C)[C@@H](O[C@H]5CNCCO5)CC[C@@]45C[C@@]35CC[C@]21C` (stereo partly drawn), the IC50 in experiment [1] (read-out: 50% reduction value), in experiment [1] (read-out: IC50 range), in experiment [2] (setting [4]), in experiment [2] (setting [5]), in experiment [3] (setting [4]) and in experiment [3] (setting [5]) was 1000 to 10000 nM each time.
Consider `CC1CC(CO)OC2C1C1(C)CCC34CC35CCC(OC3OCC(O)C(O)C3O)C(C)(C)C5CCC4C1(C)C2O` (stereo not drawn) [drawing 1203], for which the “% Inh. (range)” value is reported as “E^a (100 μM) E^b (100 μM) (% inhibition of 25-75%)” in experiment [1] (Aβ-40, 100 μM) and “E^a (100 μM) E^b (100 μM) (% inhibition of 25-75%)” in experiment [3] (Aβ-38, 100 μM). Besides, the IC50 in experiment [2] (read-out: IC50 range) is more than 10000 nM.
Turning to `CCO[C@@H]([C@H]1C[C@@H](C)[C@H]2[C@H](O1)[C@H](O)[C@@]1(C)[C@@H]3CC[C@H]4C(C)(C)[C@@H](OC5CNCCO5)CC[C@@]45C[C@@]35CC[C@]21C)C(C)(C)O` (stereo partly drawn), the IC50 was 1000 to 10000 nM in experiment [1] (read-out: 50% reduction value); 1000 to 10000 nM in experiment [1] (read-out: IC50 range); less than 1000 nM in experiment [2] (setting [4]); less than 1000 nM in experiment [2] (setting [5]); less than 1000 nM in experiment [3] (setting [4]); less than 1000 nM in experiment [3] (setting [5]).
`CC(C)[C@@H](OC(=O)C1CCC1)C1C[C@@H](C)[C@H]2C(O1)[C@H](O)[C@@]1(C)[C@@H]3CC[C@H]4C(C)(C)C(O)CC[C@@]45C[C@@]35CC[C@]21C` (stereo partly drawn): the IC50 in experiment [1] (read-out: 50% reduction value) is 1000 to 10000 nM; in experiment [2] (setting [4]), less than 1000 nM; in experiment [3] (setting [4]) it was less than 1000 nM; in experiment [3] (setting [5]), 1000 to 10000 nM.
Take `CCC(=O)O[C@@H]([C@H]1C[C@@H](C)C2C(O1)[C@H](O)[C@@]1(C)[C@@H]3CC[C@H]4C(C)(C)[C@@H](O)CC[C@@]45C[C@@]35CC[C@]21C)C(C)(C)O` (stereo partly drawn) [drawing 1197]: the IC50 in experiment [1] (read-out: 50% reduction value), in experiment [2] (setting [4]) and in experiment [3] (setting [4]) was more than 10000 nM throughout.
